According to publication PMC6747318, “Mutual Enhancement of Opioid and Adrenergic Receptors by Combinations of Opioids and Adrenergic Ligands Is Reflected in Molecular Complementarity of Ligands: Drug Development Possibilities” (International Journal of Molecular Sciences, 2019):

What was measured:
[1] = UV spectroscopy binding between compounds: binding to naloxone; details: pH 7.4 sodium phosphate buffer, read-out: Kd @ 200 nm, binding to NAL
[2] = UV spectroscopy binding between compounds: binding to amphetamine; details: read-out: Kd @ 200 nm, binding to Amph; UV spectroscopy, pH 7.4 sodium phosphate buffer; single binding constant
[3] = UV spectroscopy binding between compounds: binding to glucose; details: read-out: Kd @ 200 nm, binding to Glucose, pH 7.4 sodium phosphate buffer
[4] = target: T1, dopamine D1 receptor (D1DR) 89–98 (Homo sapiens, UniProt P21728); experiment: UV spectroscopy binding to receptor peptide D1DR 89–98
T1 construct: D1DR 89–98
Method: (§1) After the solutions were made, a 96-well quartz crystal plate was prepared to be run through the spectrophotometer at room temperature (ca. 24 °C). […] The absorbance of each receptor peptide without the presence of the adrenergic compound was measured as well. The absorbance of each well was measured at every 10 nm increment from 190 nm to 260 nm. The maximum absorbance that can be measured was set to four. Each well had 200 μL of solution, so if the absorbance of one component was being measured, it was diluted by half with a phosphate buffer.
(§2) If the measured absorbance is different than the additive absorbance of each compound, then that indicates some sort of molecular interaction. The binding can be quantified by graphing the difference in absorbance against the concentration of the compound varied to provide a binding curve. The data are analyzed by finding the additive absorbance and plotting the difference between this absorbance and the actual absorbance against the concentration of the adrenergic compound. The absorbance for the phosphate buffer is subtracted for each well before any calculations are done. […] The binding constants were estimated from the half-saturation point.

[5] = UV spectroscopy binding between compounds: binding to ascorbic acid; details: read-out: Kd @ 200 nm, binding to Asc, pH 7.4 sodium phosphate buffer
[6] = UV spectroscopy binding between compounds: binding to morphine sulfate; details: read-out: Kd @ 200 nm, binding to Morph; UV spectroscopy, pH 7.4 sodium phosphate buffer; single binding constant
[7] = target: T2, beta 2 adrenergic receptor (B2AR) 175–188 (Homo sapiens, UniProt P07550); experiment: UV spectroscopy binding to receptor peptide B2AR 175–188
T2 construct: B2AR 175–188
Method: as §1, §2

[8] = target: T3, beta 2 adrenergic receptor (B2AR) 97–103 (Homo sapiens, UniProt P07550); experiment: UV spectroscopy binding to receptor peptide B2AR 97–103
T3 construct: B2AR 97–103
Method: as §1, §2

[9] = target: intact mu opioid receptors (muOPRs) (Homo sapiens, UniProt P35372); assay type: binding; set-up: intact mu opioid receptors (muOPRs); deca-histidine tag (N); made in house; host or cells: E. coli C43 (DE3)
Chain of intact mu opioid receptors (muOPRs) (P35372 whole entry): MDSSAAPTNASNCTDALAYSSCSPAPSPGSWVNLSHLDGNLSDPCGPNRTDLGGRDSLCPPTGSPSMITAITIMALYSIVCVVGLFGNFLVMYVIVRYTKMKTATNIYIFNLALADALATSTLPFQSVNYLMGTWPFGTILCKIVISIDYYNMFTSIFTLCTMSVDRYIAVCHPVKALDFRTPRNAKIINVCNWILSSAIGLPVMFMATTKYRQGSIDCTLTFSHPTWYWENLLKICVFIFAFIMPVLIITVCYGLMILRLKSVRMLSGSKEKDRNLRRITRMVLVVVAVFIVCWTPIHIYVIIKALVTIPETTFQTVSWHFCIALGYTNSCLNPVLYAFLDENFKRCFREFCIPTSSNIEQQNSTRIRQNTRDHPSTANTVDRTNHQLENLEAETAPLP

[10] = UV spectroscopy binding between compounds: binding to propranolol; details: read-out: Kd @ 200 nm, binding to Prop; UV spectroscopy, pH 7.4 sodium phosphate buffer; single binding constant
[11] = UV spectroscopy binding between compounds: binding to riboflavin; details: pH 7.4 sodium phosphate buffer, read-out: Kd @ 200 nm, binding to Ribo
[12] = target: methionine-enkephalin (Homo sapiens, UniProt P01210); experiment: UV spectroscopy binding between compounds: binding to methionine-enkephalin; set-up: M-Enk = methionine-enkephalin; purchased Sigma-Aldrich; details: Kd @ 200 nm, binding to M-Enk, UV spectroscopy, pH 7.4 sodium phosphate buffer; single binding constant
[13] = UV spectroscopy binding between compounds: binding to methadone; details: pH 7.4 sodium phosphate buffer, read-out: Kd @ 200 nm, binding to Meth
[14] = target: T4, dopamine D1 receptor (D1DR) 170–188 (Homo sapiens, UniProt P21728); experiment: UV spectroscopy binding to receptor peptide D1DR 170–188
T4 construct: D1DR 170–188
Method: as §1, §2

For `CC(=O)OCC[N+](C)(C)C` [Acetylcholine], which Kd [1] is on record?
Its Kd is over 1000 µM.

And the Kd [2]?
Its Kd is over 1000 µM.

And the Kd [3]?
Its Kd is over 1000 µM.

What about the Kd [4] of the same molecule?
The Kd was over 1000 µM.

And the Kd [5]?
The Kd was over 1000 µM.

And the Kd [6]?
The Kd was over 1000 µM.

What about the Kd [7] of the same molecule?
Its Kd is over 1000 µM.

What about the Kd [8] of the same molecule?
Its Kd is over 1000 µM.

What about the “ligand binding to intact muOPRs” value [9] of the same molecule?
The value was “no observable bind”.

And the Kd [10]?
Its Kd is over 1000 µM.

What about the Kd [11] of the same molecule?
Its Kd is over 1000 µM.

And the Kd [12]?
Its Kd is 80 µM.

What about the Kd [13] of the same molecule?
The Kd was over 1000 µM.

And the Kd [14]?
Its Kd is over 1000 µM.
